We go through ten compounds from patent US20210070748A1, “INHIBITORS OF BRUTONS TYROSINE KINASE” (Pharmacyclics LLC, priority 2015, published 2021).

What all share (type): biochemical
One assay has as its target SRC (Homo sapiens, UniProt P12931). Kind of assay: Inhibition of a panel of kinases, in vitro HotSpot kinase assay: SRC. As to conditions: D-compounds panel data; 1 μM ATP. How it is done:
(§1) The degree of inhibition of a panel of kinases is determined using the in vitro HotSpot kinase assay (purified enzymes, ^33P-ATP, an appropriate substrate and 1 μM ATP).

For a further assay, the target named is T1, JAK3 (Homo sapiens, UniProt P52333).
T1 sequence (P52333 1-1124): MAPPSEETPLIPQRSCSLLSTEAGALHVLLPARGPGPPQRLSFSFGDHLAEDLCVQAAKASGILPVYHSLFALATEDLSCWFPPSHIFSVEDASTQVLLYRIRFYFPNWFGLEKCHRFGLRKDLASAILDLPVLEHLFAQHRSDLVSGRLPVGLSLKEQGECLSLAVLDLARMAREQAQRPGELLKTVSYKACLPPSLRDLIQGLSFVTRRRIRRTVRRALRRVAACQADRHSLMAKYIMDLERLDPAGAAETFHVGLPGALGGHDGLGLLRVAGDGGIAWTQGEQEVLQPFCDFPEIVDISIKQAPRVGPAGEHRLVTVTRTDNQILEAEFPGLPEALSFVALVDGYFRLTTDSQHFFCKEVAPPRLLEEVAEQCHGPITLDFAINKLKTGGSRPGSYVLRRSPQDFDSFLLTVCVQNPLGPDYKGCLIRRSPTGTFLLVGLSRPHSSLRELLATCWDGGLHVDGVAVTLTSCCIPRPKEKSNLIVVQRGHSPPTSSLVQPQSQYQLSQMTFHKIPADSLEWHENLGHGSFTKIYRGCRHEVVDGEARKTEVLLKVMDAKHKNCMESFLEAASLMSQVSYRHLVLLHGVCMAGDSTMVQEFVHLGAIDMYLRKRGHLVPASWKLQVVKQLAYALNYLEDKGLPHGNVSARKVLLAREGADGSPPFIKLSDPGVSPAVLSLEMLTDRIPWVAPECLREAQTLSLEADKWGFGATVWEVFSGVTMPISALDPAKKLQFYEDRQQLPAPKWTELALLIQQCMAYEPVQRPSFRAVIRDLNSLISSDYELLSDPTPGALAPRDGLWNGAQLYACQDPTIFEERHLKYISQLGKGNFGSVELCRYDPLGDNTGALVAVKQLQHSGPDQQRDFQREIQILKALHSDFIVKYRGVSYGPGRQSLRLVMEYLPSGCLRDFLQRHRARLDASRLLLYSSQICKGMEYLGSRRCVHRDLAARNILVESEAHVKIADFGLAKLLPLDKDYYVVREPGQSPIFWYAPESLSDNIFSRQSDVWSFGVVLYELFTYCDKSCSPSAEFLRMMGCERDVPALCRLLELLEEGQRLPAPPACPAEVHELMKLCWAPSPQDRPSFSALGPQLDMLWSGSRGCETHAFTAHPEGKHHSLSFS
As to the kind of experiment: Inhibition of a panel of kinases, in vitro HotSpot kinase assay: JAK3. As to conditions: D-compounds panel data; 1 μM ATP; read-out: IC50 JAK3.

The target of the next assay is T2, TEC (Homo sapiens, UniProt P42680).
T2 sequence (P42680 1-631): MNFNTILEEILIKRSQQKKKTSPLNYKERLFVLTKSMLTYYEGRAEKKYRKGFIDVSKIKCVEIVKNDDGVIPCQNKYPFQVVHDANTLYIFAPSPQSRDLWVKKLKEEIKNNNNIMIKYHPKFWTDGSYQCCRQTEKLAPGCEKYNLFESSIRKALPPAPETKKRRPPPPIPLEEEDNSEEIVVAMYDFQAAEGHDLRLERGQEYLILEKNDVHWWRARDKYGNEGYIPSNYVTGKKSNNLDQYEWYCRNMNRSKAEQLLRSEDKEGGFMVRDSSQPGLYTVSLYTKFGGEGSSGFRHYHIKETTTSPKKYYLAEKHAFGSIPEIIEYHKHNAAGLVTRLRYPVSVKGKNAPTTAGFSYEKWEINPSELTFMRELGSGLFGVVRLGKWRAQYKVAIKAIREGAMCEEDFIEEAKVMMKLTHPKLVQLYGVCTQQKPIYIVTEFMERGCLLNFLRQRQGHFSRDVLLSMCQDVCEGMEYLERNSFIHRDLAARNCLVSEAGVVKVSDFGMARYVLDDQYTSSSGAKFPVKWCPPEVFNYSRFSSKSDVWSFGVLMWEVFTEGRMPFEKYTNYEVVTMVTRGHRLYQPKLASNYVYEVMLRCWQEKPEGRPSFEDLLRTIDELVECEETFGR
As to the kind of experiment: Inhibition of a panel of kinases, in vitro HotSpot kinase assay: TEC. As to conditions: D-compounds panel data; 1 μM ATP. How it is done:
as §1

Another assay has as its target LCK (Homo sapiens, UniProt P06239). Kind of assay: Inhibition of a panel of kinases, in vitro HotSpot kinase assay: LCK. As to conditions: D-compounds panel data; 1 μM ATP; read-out: IC50 LCK.
The next assay deals with EGFR (Homo sapiens, UniProt P00533). As to the kind of experiment: Inhibition of a panel of kinases, in vitro HotSpot kinase assay: EGFR. As to conditions: D-compounds panel data; 1 μM ATP. Here is the method: as §1
Chain of EGFR (P00533 25-1210): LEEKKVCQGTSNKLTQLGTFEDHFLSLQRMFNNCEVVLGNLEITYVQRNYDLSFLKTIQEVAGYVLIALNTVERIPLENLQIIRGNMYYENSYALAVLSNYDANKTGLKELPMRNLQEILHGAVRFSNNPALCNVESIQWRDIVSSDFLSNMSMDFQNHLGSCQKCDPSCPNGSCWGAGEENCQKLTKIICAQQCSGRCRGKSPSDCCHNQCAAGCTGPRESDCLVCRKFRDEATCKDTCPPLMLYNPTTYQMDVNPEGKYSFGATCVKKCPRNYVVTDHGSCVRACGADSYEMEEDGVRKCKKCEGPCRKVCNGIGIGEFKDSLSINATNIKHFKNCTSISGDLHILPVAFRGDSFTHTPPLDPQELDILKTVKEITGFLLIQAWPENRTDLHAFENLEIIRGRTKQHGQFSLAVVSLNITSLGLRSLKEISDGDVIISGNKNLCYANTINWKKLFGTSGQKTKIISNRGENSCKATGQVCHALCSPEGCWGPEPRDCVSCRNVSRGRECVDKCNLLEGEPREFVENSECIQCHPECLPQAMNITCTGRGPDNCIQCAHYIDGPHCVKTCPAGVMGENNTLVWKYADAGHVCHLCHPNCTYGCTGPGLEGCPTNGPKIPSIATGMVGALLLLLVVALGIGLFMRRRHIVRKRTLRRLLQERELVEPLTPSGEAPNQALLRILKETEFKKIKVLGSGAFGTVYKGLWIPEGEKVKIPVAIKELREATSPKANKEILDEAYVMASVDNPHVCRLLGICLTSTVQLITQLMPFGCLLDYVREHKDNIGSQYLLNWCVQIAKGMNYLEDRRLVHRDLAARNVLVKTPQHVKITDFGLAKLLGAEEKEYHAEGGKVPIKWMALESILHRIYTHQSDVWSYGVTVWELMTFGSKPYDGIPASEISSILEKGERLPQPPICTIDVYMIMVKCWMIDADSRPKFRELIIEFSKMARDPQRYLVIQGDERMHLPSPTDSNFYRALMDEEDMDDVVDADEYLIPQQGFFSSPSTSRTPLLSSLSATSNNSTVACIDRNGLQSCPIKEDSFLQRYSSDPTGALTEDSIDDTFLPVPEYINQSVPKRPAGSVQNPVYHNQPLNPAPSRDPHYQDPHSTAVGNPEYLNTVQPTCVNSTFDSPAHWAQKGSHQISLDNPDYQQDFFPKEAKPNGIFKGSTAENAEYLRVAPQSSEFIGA
The target in a further assay is T3, ITK (Homo sapiens, UniProt Q08881).
T3 sequence (Q08881 1-620): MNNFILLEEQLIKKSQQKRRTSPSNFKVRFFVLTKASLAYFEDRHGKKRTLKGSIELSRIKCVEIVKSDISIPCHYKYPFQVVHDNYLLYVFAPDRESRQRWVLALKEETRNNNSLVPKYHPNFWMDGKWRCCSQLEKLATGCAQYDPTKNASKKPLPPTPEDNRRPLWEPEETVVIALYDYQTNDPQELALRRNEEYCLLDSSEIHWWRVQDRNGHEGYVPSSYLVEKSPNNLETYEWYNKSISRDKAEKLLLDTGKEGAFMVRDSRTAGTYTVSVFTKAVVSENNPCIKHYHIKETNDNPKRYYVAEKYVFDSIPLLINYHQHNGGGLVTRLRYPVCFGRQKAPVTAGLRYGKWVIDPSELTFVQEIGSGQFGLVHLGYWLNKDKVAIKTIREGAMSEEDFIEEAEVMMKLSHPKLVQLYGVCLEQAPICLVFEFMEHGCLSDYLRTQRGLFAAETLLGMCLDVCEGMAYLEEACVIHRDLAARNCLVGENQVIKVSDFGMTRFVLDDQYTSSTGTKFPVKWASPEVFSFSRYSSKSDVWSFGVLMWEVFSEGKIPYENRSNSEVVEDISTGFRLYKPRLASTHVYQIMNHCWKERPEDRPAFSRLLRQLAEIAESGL
As to the kind of experiment: Inhibition of a panel of kinases, in vitro HotSpot kinase assay: ITK. Particulars: D-compounds panel data; 1 μM ATP. How it is done: as §1

Where only a bound is given, the exact number is not on record here.

Chain of LCK (P06239 whole entry): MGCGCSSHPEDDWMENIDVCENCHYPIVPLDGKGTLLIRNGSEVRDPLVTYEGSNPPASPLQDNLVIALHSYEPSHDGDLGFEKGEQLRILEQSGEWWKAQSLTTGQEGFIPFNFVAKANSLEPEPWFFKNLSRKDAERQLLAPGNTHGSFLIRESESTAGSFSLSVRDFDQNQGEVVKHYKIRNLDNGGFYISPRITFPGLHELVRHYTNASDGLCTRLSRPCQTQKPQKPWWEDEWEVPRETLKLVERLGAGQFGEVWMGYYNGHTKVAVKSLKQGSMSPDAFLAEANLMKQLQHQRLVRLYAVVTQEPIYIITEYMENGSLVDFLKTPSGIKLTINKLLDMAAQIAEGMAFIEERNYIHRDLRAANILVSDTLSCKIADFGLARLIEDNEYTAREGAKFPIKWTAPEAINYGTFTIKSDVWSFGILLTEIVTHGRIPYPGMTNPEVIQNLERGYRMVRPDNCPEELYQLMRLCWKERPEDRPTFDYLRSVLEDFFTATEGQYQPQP
Chain of SRC (P12931 whole entry): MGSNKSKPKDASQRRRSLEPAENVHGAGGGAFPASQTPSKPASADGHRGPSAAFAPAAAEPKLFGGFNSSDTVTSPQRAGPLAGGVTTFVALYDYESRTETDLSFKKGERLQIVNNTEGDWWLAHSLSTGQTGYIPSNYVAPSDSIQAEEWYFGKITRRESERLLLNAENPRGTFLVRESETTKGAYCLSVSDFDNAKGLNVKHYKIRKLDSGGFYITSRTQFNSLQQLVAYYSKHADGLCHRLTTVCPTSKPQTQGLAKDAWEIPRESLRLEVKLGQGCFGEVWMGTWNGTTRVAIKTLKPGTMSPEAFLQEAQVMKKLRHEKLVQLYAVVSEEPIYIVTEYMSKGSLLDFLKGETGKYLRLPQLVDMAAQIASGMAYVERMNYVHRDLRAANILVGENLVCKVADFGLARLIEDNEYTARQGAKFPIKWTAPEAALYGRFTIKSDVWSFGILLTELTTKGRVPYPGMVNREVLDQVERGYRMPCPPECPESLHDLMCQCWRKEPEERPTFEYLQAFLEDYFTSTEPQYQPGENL

For orientation: IC50 means the point on the concentration scale where inhibition reaches its midpoint. For the compound `C[C@@H]1[C@H](NC(=O)c2ccc(N(C)CCO)cc2)CCCN1c1cnc(C(N)=O)c(Nc2cnn(C)c2)n1` [Example D-217, 5-[(2R,3R)-3-{4-[(2-hydroxyethyl)(methyl)amino]benzamido}-2-methylpiperidin-1-yl]-3-[(1-methyl-1H-pyrazol-4-yl)amino]pyrazine-2-carboxamide], the IC50 was 0.01 to 0.1 µM on SRC; 0.1 to 1 µM at JAK3; no more than 0.01 µM at TEC; 0.1 to 1 µM at LCK; 1 to 10 µM against EGFR; 0.1 to 1 µM on ITK.

Regarding `Cn1cc(Nc2nc(N3CCC[C@@H](NC(=O)c4ccc(C5CC5)cc4)C3)nnc2C(N)=O)cn1` [Example D-195, 3-[(3R)-3-(4-cyclopropylbenzamido)piperidin-1-yl]-5-[(1-methyl-1H-pyrazol-4-yl)amino]-1,2,4-triazine-6-carboxamide], the IC50 is 0.1 to 1 µM on SRC; 1 to 10 µM on JAK3; 0.01 to 0.1 µM on TEC; 0.1 to 1 µM on LCK; greater than 10 µM against EGFR; 0.1 to 1 µM at ITK.

On to `Cn1cc(Nc2nc(N3CCC(F)(F)[C@@H](NC(=O)c4ccc(C5CC5)cc4)C3)cnc2C(N)=O)cn1` [Example D-193, 5-[(3S)-3-(4-cyclopropylbenzamido)-4,4-difluoropiperidin-1-yl]-3-[(1-methylpyrazol-4-yl)amino]pyrazine-2-carboxamide], for which the IC50 on SRC is 1 to 10 µM; at JAK3, 1 to 10 µM; against TEC, 0.1 to 1 µM; on LCK it was greater than 10 µM; on EGFR it was greater than 10 µM; at ITK it was greater than 10 µM.

As for `C[C@@H]1[C@H](NC(=O)c2ccc(C3(C(F)(F)F)CC3)cc2)CCCN1c1cnc(C(N)=O)c(Nc2cnn(C)c2)n1` [Example D-221, 3-[(1-Methyl-1H-pyrazol-4-yl)amino]-5-[(2R,3R)-2-methyl-3-{4-[1-(trifluoromethyl)cyclopropyl]benzamido}piperidin-1-yl]pyrazine-2-carboxamide], the IC50 against SRC is 0.1 to 1 µM; on JAK3, greater than 10 µM; on TEC it was 0.01 to 0.1 µM; on LCK, 0.1 to 1 µM; against EGFR, 1 to 10 µM; on ITK it was 1 to 10 µM.

On to `C[C@@H]1[C@H](NC(=O)c2ncc(C3CC3)cn2)CCCN1c1cnc(C(N)=O)c(Nc2cnn(C)c2)n1` [Example D-198, 5-[(2R,3R)-3-(5-cyclopropylpyrimidine-2-amido)-2-methylpiperidin-1-yl]-3-[(1-methyl-1H-pyrazol-4-yl)amino]pyrazine-2-carboxamide], for which the IC50 is 0.01 to 0.1 µM against SRC; 0.1 to 1 µM on JAK3; 0.01 to 0.1 µM against TEC; 0.01 to 0.1 µM at LCK; 1 to 10 µM against EGFR; 0.1 to 1 µM against ITK.

For the compound `C[C@@H]1[C@H](NC(=O)c2ccc(C3CC3)cc2)CCCN1c1cnc(C(N)=O)c(Nc2cnn(C3CCN(C)CC3)c2)n1` [Example D-185, 5-[(2R,3R)-3-(4-cyclopropylbenzamido)-2-methylpiperidin-1-yl]-3-{[1-(1-methylpiperidin-4-yl)-1H-pyrazol-4-yl]amino}pyrazine-2-carboxamide], the IC50 at SRC fell in the range of 0.01 to 0.1 µM; on JAK3, 1 to 10 µM; at TEC, 0.01 to 0.1 µM; on LCK, 0.01 to 0.1 µM; on EGFR it was 0.1 to 1 µM; on ITK, 0.1 to 1 µM.

Consider `C[C@@H]1[C@H](NC(=O)c2ccc(C(C)(O)C(F)(F)F)cc2)CCCN1c1cnc(C(N)=O)c(Nc2cnn(C)c2)n1` (single isomer, unassigned) [Example D-213], for which the IC50 at SRC was 0.01 to 0.1 µM; on JAK3, 1 to 10 µM; at TEC, no more than 0.01 µM; on LCK, 0.1 to 1 µM; on EGFR it was 1 to 10 µM; at ITK, 0.1 to 1 µM.

As to `C[C@@H]1[C@H](NC(=O)c2ccc(C3CC3)c(Cl)c2)CCCN1c1cnc(C(N)=O)c(Nc2ccc(N3CCN(C)CC3)cc2)n1` [Example D-17, 5-[(2R,3R)-3-(3-chloro-4-cyclopropylbenzamido)-2-methylpiperidin-1-yl]-3-{[4-(4-methylpiperazin-1-yl)phenyl]amino}pyrazine-2-carboxamide], the IC50 at SRC lay in the range of 0.1 to 1 µM; on JAK3 it was 1 to 10 µM; at TEC it was 0.1 to 1 µM; at LCK, 0.1 to 1 µM; at EGFR it was 1 to 10 µM; against ITK it was 0.1 to 1 µM.

On to `C[C@@H]1[C@H](NC(=O)c2ccc(C3CC3)cc2F)CCCN1c1cnc(C(N)=O)c(Nc2ccc(N3CCN(C)C[C@@H]3C)cc2)n1` [Example D-12, 5-[(2R,3R)-3-(4-cyclopropyl-2-fluorobenzamido)-2-methylpiperidin-1-yl]-3-({4-[(2S)-2,4-dimethylpiperazin-1-yl]phenyl}amino)pyrazine-2-carboxamide], for which the IC50 against SRC was in the range of 0.1 to 1 µM; on JAK3, 0.1 to 1 µM; against TEC, 0.01 to 0.1 µM; on LCK, 0.01 to 0.1 µM; against EGFR, 0.1 to 1 µM; on ITK, 0.1 to 1 µM.

As for `C[C@@H]1[C@H](NC(=O)c2cnc(C(C)(C)C)s2)CCCN1c1cnc(C(N)=O)c(Nc2cnn(C)c2)n1` [Example D-239, 5-[(2R,3R)-3-(2-tert-butyl-1,3-thiazole-5-amido)-2-methylpiperidin-1-yl]-3-[(1-methyl-1H-pyrazol-4-yl)amino]pyrazine-2-carboxamide], the 50% inhibitory concentration (IC50) was 0.01 to 0.1 µM at SRC; 0.1 to 1 µM on JAK3; no more than 0.01 µM against TEC; 0.01 to 0.1 µM on LCK; 0.1 to 1 µM on EGFR; 0.1 to 1 µM against ITK.
